Data set [1] relates to A549 cells. Put plainly: sulforhodamine B cytotoxicity assay, 72 hour drug exposure, A549. The data set is classed as cell-based.
The test system of data set [2] is RPMI 7666 cells. Put plainly: sulforhodamine B cytotoxicity assay, 72 hour drug exposure, RPMI 7666. It is filed as cell-based. The method, then: (§1) These studies were performed using a sulforrhodamine B assay (see Monks et al., J. Natl. Cancer Inst. (U.S.) 83:757 ([…])). Compounds were dissolved in ethanol. Results from these studies, presented in the following tables, are expressed as Gl50 values, that is, concentration of a drug (micromolar) required to inhibit growth of fifty percent of the cells.

In data set [3] the test system is C3H10T1/2 cells. Briefly: sulforhodamine B cytotoxicity assay, 72 hour drug exposure, C3H10T1/2. It is filed as cell-based. The conditions noted are these: Mus musculus, C3H 10T1/2. The method, then: as §1
Data set [4] concerns LEWIS LUNG cells. Put plainly: sulforhodamine B cytotoxicity assay, 72 hour drug exposure, Lewis lung. The data set is classed as cell-based.
Data set [5] concerns U937 cells. Put plainly: sulforhodamine B cytotoxicity assay, 72 hour drug exposure, U937. The note with it: Homo sapiens, U-937. The data set is classed as cell-based. The method, then:
as §1

Data set [6] has as its system MCF7 cells. Put plainly: sulforhodamine B cytotoxicity assay, 72 hour drug exposure, MCF7. It is filed as cell-based.
Data set [7] concerns OVCAR 3 cells. Put plainly: sulforhodamine B cytotoxicity assay, 72 hour drug exposure, OVCAR 3. The data set is classed as cell-based.
Data set [8] relates to HT 29 cells. Put plainly: sulforhodamine B cytotoxicity assay, 72 hour drug exposure, HT 29. The data set is classed as cell-based.
The test system of data set [9] is MCF7/ADR cells. Briefly: sulforhodamine B cytotoxicity assay, 72 hour drug exposure, MCF7/ADR. It is filed as cell-based.
Data set [10] has as its system SKMEL 28 cells. Put plainly: sulforhodamine B cytotoxicity assay, 72 hour drug exposure, SKMEL 28. It is filed as cell-based.
Data set [11] concerns CAKI 1 cells. Briefly: sulforhodamine B cytotoxicity assay, 72 hour drug exposure, CAKI 1. It is filed as cell-based.
The test system of data set [12] is P388/ADR cells. Briefly: sulforhodamine B cytotoxicity assay, 72 hour drug exposure, P388/ADR. It is filed as cell-based. The conditions noted are these: Mus musculus. As to the method:
as §1

In data set [13] the test system is P388 cells. Put plainly: sulforhodamine B cytotoxicity assay, 72 hour drug exposure, P388. The data set is classed as cell-based. The note with it: Mus musculus. The method, then:
as §1

Data set [14] has as its system mice. Put plainly: in vivo toxicity after i.v. injection in mice.
Setting [15] is: Homo sapiens, NCI/ADR-RES, 72 h.

Where a name gives a salt, the structure may show the parent alone.

With `CCCCCCCCCCCCC/C=C/[C@@H](O)[C@H](CO[Si](C)(C)C(C)(C)C)NC(=O)CCCCC` [1-TBDMS C6-Ceramide, 1-TBDMS C6-Cer], the 50% growth inhibitory concentration (GI50) in data set [1] (Homo sapiens) is over 200 µM; in [2], over 200 µM; in data set [3], over 161 µM; in data set [4] (Lewis lung carcinoma) it was over 200 µM; in [5], over 200 µM.
Turning to `CCCCCCCCCCCCC/C=C/[C@@H](OC(=O)CCC)[C@H](CO[Si](C)(C)C(C)(C)C)NC(=O)CCCCC` [1-TBDMS-3-Butyrate C6-Cer, 1-TBDMS,3-butyrate, C6-Cer], the GI50 in [1] (Homo sapiens), in data set [2], in data set [3], in [4] (Lewis lung carcinoma) and in data set [5] was over 200 µM each time.
As to `CCCCCCCCCCCCC/C=C/[C@@H](O[Si](C)(C)C(C)(C)C)[C@H](CO)NC(=O)CCCCC` [3-TBDMS C6-Ceramide, 3-TBDMS C6-Cer], the concentration for 50% growth inhibition (GI50) in [1] (Homo sapiens), in [2], in data set [3], in data set [4] (Lewis lung carcinoma) and in data set [5] was over 200 µM throughout.
Take `CCCCCCCCCCCCCC(O)C(O)[C@@H](O)[C@H](CO)NC(=O)CCCCC` (stereo partly shown) [4,5-Diol C6-Ceramide, 4,5-diol C6-Cer]: the concentration for 50% growth inhibition (GI50) worked out at 25.1 ± 0.3 µM in data set [1] (Homo sapiens, A549, 72 h); 20.7 ± 0.1 µM in data set [6] (Homo sapiens, MCF7, 72 h); 38.2 ± 2.3 µM in [7] (Homo sapiens, OVCAR-3, 72 h); 14.6 ± 0.4 µM in data set [8] (Homo sapiens, HT-29, 72 h); 28.3 ± 1.1 µM in data set [9] (setting [15]); 15.2 µM in [4] (Mus musculus, Lewis lung carcinoma, 72 h).
`CCCCCCCCCCCCC/C=C/[C@@H](O)[C@H](CO)NCCCC` [N-C4 Sphingosine, N-C4 sphingosine]: the 50% growth inhibitory concentration (GI50) in [10] (Homo sapiens, SK-MEL-28, 72 h) worked out at 6.13 ± 1.03 µM; in data set [1] (Homo sapiens, A549, 72 h), 4.9 ± 0.1 µM; in [6] (Homo sapiens, MCF7, 72 h), 4.88 ± 0.03 µM; in data set [11] (Homo sapiens, CAKI-1, 72 h), 6.88 ± 0.52 µM; in data set [7] (Homo sapiens, OVCAR-3, 72 h), 14.1 ± 0.35 µM; in data set [8] (Homo sapiens, HT-29, 72 h), 6.49 ± 0.11 µM. For the same compound, the concentration for 50% growth inhibition (GI50) in [9] (setting [15]) worked out at 9.6 ± 0.47 µM; in data set [4] (Lewis lung carcinoma, 72 h), 5.08 ± 0.13 µM.
In the case of `CCCCCCCCCCCCC/C=C/[C@@H](O)[C@H](CO)NCCCCCCCC` [N-C8 Sphingosine HCl Salt], the GI50 was determined as 4.95 ± 0.02 µM in data set [10] (HCl Salt); 4.97 ± 0.19 µM in data set [1] (HCl Salt); 4.9 ± 0.02 µM in data set [6] (HCl Salt); 4.47 ± 0.01 µM in [11] (HCl Salt); 5.23 ± 0.01 µM in [7] (HCl Salt); 5.78 µM in [8] (HCl Salt). In addition, the GI50 in data set [9] (HCl Salt) and in data set [4] (HCl Salt) was 4.82 ± 0.18 µM in each case.
Take `CCCCCCCCCCCCC/C=C/[C@@H](O)[C@H](CO)NCCCCCC` [N-Hexyl Sphingosine, n-hexyl sphingosine]: the GI50 turned out to be 4.94 ± 0.66 µM in [10] (Homo sapiens, SK-MEL-28, 72 h); 4.9 ± 0.1 µM in data set [1] (Homo sapiens, A549, 72 h); 4.8 ± 0.1 µM in [6] (Homo sapiens, MCF7, 72 h); 4.74 ± 0.09 µM in data set [6] (listed as N-C6 Sphingosine); 6.84 ± 3.62 µM in data set [11] (Homo sapiens, CAKI-1, 72 h); 4.28 ± 0.04 µM in data set [11] (listed as N-C6 Sphingosine). The 50% growth inhibitory concentration (GI50) in [7] (Homo sapiens, OVCAR-3, 72 h) was 4.99 ± 0.05 µM; in data set [8] (Homo sapiens, HT-29, 72 h), 5.2 ± 0.1 µM; in data set [8] (listed as N-C6 Sphingosine) it was 5.03 ± 0.06 µM; in [9] (setting [15]), 5.57 ± 1.17 µM; in data set [9] (listed as N-C6 Sphingosine), 4.69 ± 0.1 µM; in data set [12], 2.61 ± 1.7 µM. Also, the GI50 in data set [13] was found to be 2.59 ± 0.3 µM; in data set [4] (Lewis lung carcinoma, 72 h), 4.9 ± 0.1 µM; in data set [4] (listed as N-C6 Sphingosine), 4.61 ± 0.04 µM. The “Number of Animals Dead” value in data set [14] (12.5 mg/kg) is 0/2; in data set [14] (25 mg/kg) it was 0/2; in [14] (50 mg/kg), 0/2; in [14] (100 mg/kg), 2/2.
Turning to `CCCCCCCCCCCCC/C=C/[C@@H](O)[C@@H](N)CO` [Sphingosine, reference compound], the GI50 in data set [10] (Homo sapiens, SK-MEL-28) stood at 15.6 ± 1 µM; in [1] (Homo sapiens), 20.2 ± 0.8 µM; in data set [6] (Homo sapiens), 20.4 ± 0.4 µM; in [11] (Homo sapiens), 39.7 ± 0.8 µM; in data set [7] (Homo sapiens), 44.6 ± 0.9 µM; in data set [8] (Homo sapiens), 19.3 ± 0.1 µM. Moreover, the GI50 in [9] (Homo sapiens, NCI/ADR-RES) turned out to be 19.8 µM; in data set [4] (Lewis lung carcinoma) it was 12.2 ± 0.1 µM.

These data come from US5631394A, “Pharmaceutically active ceramide-related compounds” (The Liposome Company, Inc., priority 1995, dated 1997).
